Columns and labels:
Assay in all cases: Antibacterial activity, microbroth dilution method (MIC)
[1] = tested on: control Gram-negative E. coli 25922 strain; format: cell-based, Escherichia coli; settings: Escherichia coli
Text: (§1) The antibacterial activity from a microbroth dilution method may be presented as the minimum inhibitory concentration (MIC in μg/mL). The MIC value is the lowest concentration of drug which prevents macroscopically visible growth under test conditions.
(§2) Antibacterial activity of test compounds against the super sensitive Gram-negative Escherichia coli (E. coli) BAS849 bacterium, the control Gram-negative E. coli 25922 strain and the Gram-positive Staphylococcus aureus (S. aureus) 29213 bacterium are shown in Table 1.

[2] = tested on: super sensitive Gram-negative Escherichia coli (E. coli) BAS849; format: cell-based; settings: Escherichia coli; super sensitive Gram-negative E. coli BAS849; microbroth dilution; read-out: MIC, E. coli BAS849
Text: as §1, §2

[3] = tested on: Gram-positive Staphylococcus aureus (S. aureus) 29213; format: cell-based; settings: Staphylococcus aureus, Gram-positive S. aureus 29213
Text: as §1, §2

Row | Compound | MIC [1] [µg/mL] | MIC [2] [µg/mL] | MIC [3] [µg/mL]
1 | CCNCc1cc2cc3c(cc2n1C)CCCc1c-3[nH]c(=O)c(C(=O)O)c1O.Cl [Cpd 25, 10-((ethylamino)methyl)-4-hydroxy-9-methyl-2-oxo-1,2,5,6,7,9-hexahydropyrido[3′,2′:6,7]cyclohepta[1,2-f]indole-3-carboxylic acid hydrochloride] | < 1 | < 1 | 3.5 to 12.5
2 | CC(C)NCc1cc2cc3c(cc2n1C)CCCc1c-3[nH]c(=O)c(C(=O)O)c1O.Cl [Cpd 26, 4-hydroxy-10-((isopropylamino)methyl)-9-methyl-2-oxo-1,2,5,6,7,9-hexahydropyrido[3′,2′:6,7]cyclohepta[1,2-f]indole-3-carboxylic acid hydrochloride] | < 1 | < 1 | 3.5 to 12.5
3 | Cl.Cn1c(CNC(C)(C)C)cc2cc3c(cc21)CCCc1c-3[nH]c(=O)c(C(=O)O)c1O [Cpd 27, 10-((tert-butylamino)methyl)-4-hydroxy-9-methyl-2-oxo-1,2,5,6,7,9-hexahydropyrido[3′,2′:6,7]cyclohepta[1,2-f]indole-3-carboxylic acid hydrochloride] | < 1 | < 1 | 1 to 3.5
4 | Cl.Cn1c(CN2CCC(O)CC2)cc2cc3c(cc21)CCCc1c-3[nH]c(=O)c(C(=O)O)c1O [Cpd 28, 4-hydroxy-10-((4-hydroxypiperidin-1-yl)methyl)-9-methyl-2-oxo-1,2,5,6,7,9-hexahydropyrido[3′,2′:6,7]cyclohepta[1,2-f]indole-3-carboxylic acid hydrochloride] | 1 to 3.5 | < 1 | 3.5 to 12.5
5 | Cl.Cl.Cn1c(CN2CCC(N)CC2)cc2cc3c(cc21)CCCc1c-3[nH]c(=O)c(C(=O)O)c1O [Cpd 29, 10-((4-aminopiperidin-1-yl)methyl)-4-hydroxy-9-methyl-2-oxo-1,2,5,6,7,9-hexahydropyrido[3′,2′:6,7]cyclohepta[1,2-f]indole-3-carboxylic acid dihydrochloride] | 1 to 3.5 | < 1 | 12.5 to 150
6 | CN(C)C1CCN(Cc2cc3cc4c(cc3n2C)CCCc2c-4[nH]c(=O)c(C(=O)O)c2O)CC1.Cl.Cl [Cpd 30, 10-((4-(dimethylamino)piperidin-1-yl)methyl)-4-hydroxy-9-methyl-2-oxo-1,2,5,6,7,9-hexahydropyrido[3′,2′:6,7]cyclohepta[1,2-f]indole-3-carboxylic acid dihydrochloride] | 3.5 to 12.5 | < 1 | 3.5 to 12.5
7 | Cl.Cl.Cn1c(CN2CCCC(N)C2)cc2cc3c(cc21)CCCc1c-3[nH]c(=O)c(C(=O)O)c1O (stereo not drawn) [Cpd 31, 10-((3-aminopiperidin-1-yl)methyl)-4-hydroxy-9-methyl-2-oxo-1,2,5,6,7,9-hexahydropyrido[3′,2′:6,7]cyclohepta[1,2-f]indole-3-carboxylic acid dihydrochloride] | 3.5 to 12.5 | 1 to 3.5 | 12.5 to 150
8 | Cl.Cn1c(CNCC2CC2)cc2cc3c(cc21)CCCc1c-3[nH]c(=O)c(C(=O)O)c1O [Cpd 32, 10-(((cyclopropylmethyl)amino)methyl)-4-hydroxy-9-methyl-2-oxo-1,2,5,6,7,9-hexahydropyrido[3′,2′:6,7]cyclohepta[1,2-f]indole-3-carboxylic acid hydrochloride] | 1 to 3.5 | < 1 | 1 to 3.5
9 | Cl.Cn1c(CNC2(C)CC2)cc2cc3c(cc21)CCCc1c-3[nH]c(=O)c(C(=O)O)c1O [Cpd 33, 4-hydroxy-9-methyl-10-(((1-methylcyclopropyl)amino)methyl)-2-oxo-1,2,5,6,7,9-hexahydropyrido[3′,2′:6,7]cyclohepta[1,2-f]indole-3-carboxylic acid hydrochloride] | < 1 | < 1 | 3.5 to 12.5
10 | Cl.Cn1c(CNCc2ccccc2)cc2cc3c(cc21)CCCc1c-3[nH]c(=O)c(C(=O)O)c1O [Cpd 34, 10-((benzylamino)methyl)-4-hydroxy-9-methyl-2-oxo-1,2,5,6,7,9-hexahydropyrido[3′,2′:6,7]cyclohepta[1,2-f]indole-3-carboxylic acid hydrochloride] | 1 to 3.5 | < 1 | 1 to 3.5
11 | Cl.Cn1c(CN)cc2cc3c(cc21)CCCc1c-3[nH]c(=O)c(C(=O)O)c1O [Cpd 35, 10-(aminomethyl)-4-hydroxy-9-methyl-2-oxo-1,2,5,6,7,9-hexahydropyrido[3′,2′:6,7]cyclohepta[1,2-f]indole-3-carboxylic acid hydrochloride] | 1 to 3.5 | < 1 | 3.5 to 12.5
12 | Cl.Cn1c(CNC2CC2)cc2cc3c(cc21)CCCc1c-3[nH]c(=O)c(C(=O)O)c1O [Cpd 36, 10-((cyclopropylamino)methyl)-4-hydroxy-9-methyl-2-oxo-1,2,5,6,7,9-hexahydropyrido[3′,2′:6,7]cyclohepta[1,2-f]indole-3-carboxylic acid hydrochloride] | 1 to 3.5 | < 1 | 3.5 to 12.5
13 | Cl.Cn1c(CNCC2CCC2)cc2cc3c(cc21)CCCc1c-3[nH]c(=O)c(C(=O)O)c1O [Cpd 37, 10-(((cyclobutylmethyl)amino)methyl)-4-hydroxy-9-methyl-2-oxo-1,2,5,6,7,9-hexahydropyrido[3′,2′:6,7]cyclohepta[1,2-f]indole-3-carboxylic acid hydrochloride] | 1 to 3.5 | < 1 | 3.5 to 12.5
14 | CC1CC1CNCc1cc2cc3c(cc2n1C)CCCc1c-3[nH]c(=O)c(C(=O)O)c1O.Cl (stereo not drawn) [Cpd 38, 4-hydroxy-9-methyl-10-((((2-methylcyclopropyl)methyl)amino)methyl)-2-oxo-1,2,5,6,7,9-hexahydropyrido[3′,2′:6,7]cyclohepta[1,2-f]indole-3-carboxylic acid hydrochloride] | 1 to 3.5 | < 1 | 3.5 to 12.5
15 | Cl.Cn1c(CNCc2ccncc2)cc2cc3c(cc21)CCCc1c-3[nH]c(=O)c(C(=O)O)c1O [Cpd 39, 4-hydroxy-9-methyl-2-oxo-10-(((pyridin-4-ylmethyl)amino)methyl)-1,2,5,6,7,9-hexahydropyrido[3′,2′:6,7]cyclohepta[1,2-f]indole-3-carboxylic acid hydrochloride] | 3.5 to 12.5 | < 1 | 3.5 to 12.5
16 | Cl.Cn1c(CN2CCCCC2)cc2cc3c(cc21)CCCc1c-3[nH]c(=O)c(C(=O)O)c1O [Cpd 40, 4-hydroxy-9-methyl-2-oxo-10-(piperidin-1-ylmethyl)-1,2,5,6,7,9-hexahydropyrido[3′,2′:6,7]cyclohepta[1,2-f]indole-3-carboxylic acid hydrochloride] | 1 to 3.5 | < 1 | 3.5 to 12.5
17 | Cl.Cn1c(CN2CCOCC2)cc2cc3c(cc21)CCCc1c-3[nH]c(=O)c(C(=O)O)c1O [Cpd 41, 4-hydroxy-9-methyl-10-(morpholinomethyl)-2-oxo-1,2,5,6,7,9-hexahydropyrido[3′,2′:6,7]cyclohepta[1,2-f]indole-3-carboxylic acid hydrochloride] | 3.5 to 12.5 | < 1 | 1 to 3.5
18 | CN1CCN(Cc2cc3cc4c(cc3n2C)CCCc2c-4[nH]c(=O)c(C(=O)O)c2O)CC1.Cl.Cl [Cpd 42, 4-hydroxy-9-methyl-10-((4-methylpiperazin-1-yl)methyl)-2-oxo-1,2,5,6,7,9-hexahydropyrido[3′,2′:6,7]cyclohepta[1,2-f]indole-3-carboxylic acid dihydrochloride] | 3.5 to 12.5 | < 1 | 3.5 to 12.5
19 | CCN(CC)Cc1cc2cc3c(cc2n1C)CCCc1c-3[nH]c(=O)c(C(=O)O)c1O.Cl [Cpd 43, 10-((diethylamino)methyl)-4-hydroxy-9-methyl-2-oxo-1,2,5,6,7,9-hexahydropyrido[3′,2′:6,7]cyclohepta[1,2-f]indole-3-carboxylic acid hydrochloride] | 1 to 3.5 | < 1 | 3.5 to 12.5
20 | CCCNCc1cc2cc3c(cc2n1C)CCCc1c-3[nH]c(=O)c(C(=O)O)c1O.Cl [Cpd 44, 4-hydroxy-9-methyl-2-oxo-10-((propylamino)methyl)-1,2,5,6,7,9-hexahydropyrido[3′,2′:6,7]cyclohepta[1,2-f]indole-3-carboxylic acid hydrochloride] | < 1 | < 1 | 3.5 to 12.5
21 | C#CCNCc1cc2cc3c(cc2n1C)CCCc1c-3[nH]c(=O)c(C(=O)O)c1O.Cl [Cpd 45, 4-hydroxy-9-methyl-2-oxo-10-((prop-2-yn-1-ylamino)methyl)-1,2,5,6,7,9-hexahydropyrido[3′,2′:6,7]cyclohepta[1,2-f]indole-3-carboxylic acid hydrochloride] | 1 to 3.5 | < 1 | 1 to 3.5
22 | Cl.Cn1c(CN2CC[C@@H](F)C2)cc2cc3c(cc21)CCCc1c-3[nH]c(=O)c(C(=O)O)c1O [Cpd 46, (R)-10-((3-fluoropyrrolidin-1-yl)methyl)-4-hydroxy-9-methyl-2-oxo-1,2,5,6,7,9-hexahydropyrido[3′,2′:6,7]cyclohepta[1,2-f]indole-3-carboxylic acid hydrochloride] | 1 to 3.5 | < 1 | 3.5 to 12.5
23 | CN(C)C1CCN(Cc2cc3cc4c(cc3n2C)CCCc2c-4[nH]c(=O)c(C(=O)O)c2O)C1.Cl.Cl (stereo not drawn) [Cpd 47, 10-((3-(dimethylamino)pyrrolidin-1-yl)methyl)-4-hydroxy-9-methyl-2-oxo-1,2,5,6,7,9-hexahydropyrido[3′,2′:6,7]cyclohepta[1,2-f]indole-3-carboxylic acid dihydrochloride] | 3.5 to 12.5 | < 1 | 3.5 to 12.5

Source: patent US20150038438A1, “ANTIBACTERIAL COMPOUNDS AND METHODS FOR USE” (PTC THERAPEUTICS, INC., priority 2011, published 2015)
